Results on one compound are retold here after US11547683B2, “Therapeutic compounds, formulations, and uses thereof” (Tvardi Therapeutics, Inc., priority 2020, dated 2023).

Each structure is given as a SMILES string.

This data set in a line: Studies on oxidation of the compound of Formula (I). In kind it is physicochemical. As for the experimental part:
Stability was analyzed using a variety of antioxidants. A bulk formulation containing Kolliphor® RH 40, PEG600, Polysorbate 80, Labrasol®, and Transcutol® HP (45:15:10:20:10 by weight) was prepared with a compound of Formula (I) concentration of 60 mg/g. Antioxidants, including Vitamin E (0.05 wt %), ascorbyl palmitate (0.05 wt %), butylated hydroxytoluene (0.005 wt %), and triethyl citrate (0.7 wt %) were dissolved/dispersed in the bulk formulation, respectively. The resulting samples were placed at room temperature in glass vials and protected from light. The samples were monitored for purity by HPLC at 0, 3, and 8 weeks.

In the case of `COc1ccc(S(=O)(=O)Nc2cc(-c3c(O)ccc4ccccc34)c(O)c3ccccc23)cc1` [Compound of Formula (I)], the susceptibility to oxidation entry is “susceptible to oxidation”.
